Experimental data as given in paper PMC5218480 (PLoS ONE, 2017).

System: MV-4-11 cells
Assay: Gene expression microarray analysis (Affymetrix PrimeView) and GSEA
Type: cell-based, human
Parameters: RFU PODN (11730768_x_at) / Fold change /veh PODN (11730768_x_at) / RFU LINC00158 (11744669_a_at) / Fold change /veh LINC00158 (11744669_a_at) / RFU DUSP10 (11751237_a_at) / Fold change /veh DUSP10 (11751237_a_at) / RFU ID3 (11757404_x_at) / Fold change /veh ID3 (11757404_x_at) / RFU PLEKHG5 (11737974_s_at) / Fold change /veh PLEKHG5 (11737974_s_at) / RFU LRRC4B (11730491_at) / Fold change /veh LRRC4B (11730491_at) / RFU GIMAP4 (11747438_a_at) / Fold change /veh GIMAP4 (11747438_a_at) / RFU KRT8 (11758183_x_at) / Fold change /veh KRT8 (11758183_x_at) / RFU CNN1 (11734310_a_at) / Fold change /veh CNN1 (11734310_a_at) / RFU VPS37D (11726825_at) / Fold change /veh VPS37D (11726825_at) / RFU C10orf10 (11716522_x_at) / Fold change /veh C10orf10 (11716522_x_at) / RFU KIR2DL2 /// KIR2DL4 /// KIR2DL5A /// KIR2DL5B /// KIR2DS1 /// KIR2DS2 /// KIR2DS3 /// KIR2DS4 /// KIR3DL3 /// KIR3DL3 /// KIR3DS1 (11738374_at) / Fold change /veh KIR2DL2 /// KIR2DL4 /// KIR2DL5A /// KIR2DL5B /// KIR2DS1 /// KIR2DS2 /// KIR2DS3 /// KIR2DS4 /// KIR3DL3 /// KIR3DL3 /// KIR3DS1 (11738374_at) / RFU C1QL1 (11718748_at) / Fold change /veh C1QL1 (11718748_at) / RFU TMPRSS4 (11747572_a_at) / Fold change /veh TMPRSS4 (11747572_a_at) / RFU HAMP (11756126_x_at) / Fold change /veh HAMP (11756126_x_at) / RFU RNFT2 (11725882_a_at) / Fold change /veh RNFT2 (11725882_a_at) / RFU NR4A2 (11747474_a_at) / Fold change /veh NR4A2 (11747474_a_at) / RFU ABCC12 (11746883_a_at) / Fold change /veh ABCC12 (11746883_a_at) / RFU TMEM136 (11760407_x_at) / Fold change /veh TMEM136 (11760407_x_at) / RFU CLDN22 /// WWC2 (11732394_at) / Fold change /veh CLDN22 /// WWC2 (11732394_at) / RFU HLA-DPB1 (11760878_x_at) / Fold change /veh HLA-DPB1 (11760878_x_at) / RFU SPINT1 (11716480_a_at) / Fold change /veh SPINT1 (11716480_a_at) / RFU GAP43 (11754022_s_at) / Fold change /veh GAP43 (11754022_s_at) / RFU A4GNT (11735810_at) / Fold change /veh A4GNT (11735810_at) / RFU PRB3 (11715151_x_at) / Fold change /veh PRB3 (11715151_x_at) / RFU TUBB4B (11761932_at) / Fold change /veh TUBB4B (11761932_at) / RFU CAPN14 (11732068_a_at) / Fold change /veh CAPN14 (11732068_a_at) / RFU TMCC2 (11721928_a_at) / Fold change /veh TMCC2 (11721928_a_at) / RFU IRGQ (11745062_a_at) / Fold change /veh IRGQ (11745062_a_at) / RFU FAM174B (11720279_a_at) / Fold change /veh FAM174B (11720279_a_at) / RFU TMPRSS4 (11748680_a_at) / Fold change /veh TMPRSS4 (11748680_a_at) / RFU FAM212B (11763350_a_at) / Fold change /veh FAM212B (11763350_a_at) / RFU PLEKHG5 (11743358_a_at) / Fold change /veh PLEKHG5 (11743358_a_at) / RFU ZSCAN30 (11745921_a_at) / Fold change /veh ZSCAN30 (11745921_a_at) / RFU CMKLR1 (11741424_a_at) / Fold change /veh CMKLR1 (11741424_a_at) / RFU LOC101060620 /// MAPK8IP1 (11723275_at) / Fold change /veh LOC101060620 /// MAPK8IP1 (11723275_at) / RFU SPTSSB (11747773_x_at) / Fold change /veh SPTSSB (11747773_x_at) / RFU PRSS12 (11739890_at) / Fold change /veh PRSS12 (11739890_at) / RFU BIN1 (11741810_x_at) / Fold change /veh BIN1 (11741810_x_at) / RFU WNT11 (11732464_a_at) / Fold change /veh WNT11 (11732464_a_at) / RFU C10orf10 (11716521_a_at) / Fold change /veh C10orf10 (11716521_a_at) / RFU C5orf56 (11738089_at) / Fold change /veh C5orf56 (11738089_at) / RFU CYB561 (11721691_x_at) / Fold change /veh CYB561 (11721691_x_at) / RFU ANKRD19P (11752326_a_at) / Fold change /veh ANKRD19P (11752326_a_at) / RFU OR2T12 /// OR2T33 /// OR2T8 (11738714_s_at) / Fold change /veh OR2T12 /// OR2T33 /// OR2T8 (11738714_s_at) / RFU VCAN (11748164_a_at) / Fold change /veh VCAN (11748164_a_at) / RFU JSRP1 (11732532_at) / Fold change /veh JSRP1 (11732532_at) / RFU KRTAP10-11 (11738290_x_at) / Fold change /veh KRTAP10-11 (11738290_x_at) / RFU MYO3A (11730013_a_at) / Fold change /veh MYO3A (11730013_a_at) / RFU EBF3 (11725865_a_at) / Fold change /veh EBF3 (11725865_a_at) / RFU CAMK2N1 (11719241_x_at) / Fold change /veh CAMK2N1 (11719241_x_at) / RFU C5orf56 (11738088_a_at) / Fold change /veh C5orf56 (11738088_a_at) / RFU OLFML3 (11715873_a_at) / Fold change /veh OLFML3 (11715873_a_at) / RFU LOC100653217 /// NTM (11731650_a_at) / Fold change /veh LOC100653217 /// NTM (11731650_a_at) / RFU MAPK11 (11762145_a_at) / Fold change /veh MAPK11 (11762145_a_at) / RFU FIZ1 (11724087_x_at) / Fold change /veh FIZ1 (11724087_x_at) / RFU OASL (11726364_x_at) / Fold change /veh OASL (11726364_x_at) / RFU SOX15 (11748057_x_at) / Fold change /veh SOX15 (11748057_x_at) / RFU CD79A (11719716_a_at) / Fold change /veh CD79A (11719716_a_at) / RFU HIST1H1D (11736915_at) / Fold change /veh HIST1H1D (11736915_at) / RFU CASKIN2 (11723855_a_at) / Fold change /veh CASKIN2 (11723855_a_at) / RFU LOC730098 (11760151_x_at) / Fold change /veh LOC730098 (11760151_x_at) / RFU OR4N2 (11742367_at) / Fold change /veh OR4N2 (11742367_at) / RFU PRRT2 (11749266_a_at) / Fold change /veh PRRT2 (11749266_a_at) / RFU SNX32 (11753110_a_at) / Fold change /veh SNX32 (11753110_a_at) / RFU CDHR5 (11726645_a_at) / Fold change /veh CDHR5 (11726645_a_at) / RFU RCAN1 (11760418_a_at) / Fold change /veh RCAN1 (11760418_a_at) / RFU FAM167A (11723789_a_at) / Fold change /veh FAM167A (11723789_a_at) / RFU FAM26E (11764081_at) / Fold change /veh FAM26E (11764081_at) / RFU ISYNA1 (11749810_s_at) / Fold change /veh ISYNA1 (11749810_s_at) / RFU ACY1 (11761880_at) / Fold change /veh ACY1 (11761880_at) / RFU 11764098_at / Fold change /veh 11764098_at / RFU SAMD14 (11745864_x_at) / Fold change /veh SAMD14 (11745864_x_at) / RFU NPB (11741838_a_at) / Fold change /veh NPB (11741838_a_at) / RFU TMPRSS6 (11731388_a_at) / Fold change /veh TMPRSS6 (11731388_a_at) / RFU KRTAP10-2 (11738614_at) / Fold change /veh KRTAP10-2 (11738614_at) / RFU ARHGAP8 /// PRR5-ARHGAP8 (11727945_x_at) / Fold change /veh ARHGAP8 /// PRR5-ARHGAP8 (11727945_x_at) / RFU KRTAP5-7 /// NADSYN1 (11734609_at) / Fold change /veh KRTAP5-7 /// NADSYN1 (11734609_at) / RFU RASL12 (11751679_a_at) / Fold change /veh RASL12 (11751679_a_at) / RFU CDKN2B (11736163_a_at) / Fold change /veh CDKN2B (11736163_a_at) / RFU PRF1 (11729649_at) / Fold change /veh PRF1 (11729649_at) / RFU, ZNF638 /// ZNF638-IT1 / Fold change vs veh, ZNF638 /// ZNF638-IT1 / RFU, PANK3 / Fold change vs veh, PANK3 / RFU, SH3YL1 / Fold change vs veh, SH3YL1 / RFU, ZEB2 / Fold change vs veh, ZEB2 / RFU, NRIP1 / Fold change vs veh, NRIP1 / RFU, PTTG1IP / Fold change vs veh, PTTG1IP / RFU, CAPN2 / Fold change vs veh, CAPN2 / RFU, MED14 / Fold change vs veh, MED14 / RFU, SNORA58 / Fold change vs veh, SNORA58 / RFU, C1orf63 / Fold change vs veh, C1orf63 / RFU, LRRFIP1 / Fold change vs veh, LRRFIP1 / RFU, NDUFAF7 / Fold change vs veh, NDUFAF7 / RFU, SLC12A2 / Fold change vs veh, SLC12A2 / RFU, IBTK / Fold change vs veh, IBTK / RFU, ESF1 / Fold change vs veh, ESF1 / Fold change vs veh, TMEM50B / RFU, TAOK1 / Fold change vs veh, TAOK1 / RFU, ACBD3 / Fold change vs veh, ACBD3 / RFU, TMA16 / Fold change vs veh, TMA16 / RFU, RWDD3 / Fold change vs veh, RWDD3 / RFU, BCAT1 / Fold change vs veh, BCAT1 / RFU, EDEM3 / Fold change vs veh, EDEM3 / RFU, TMEM33 / Fold change vs veh, TMEM33 / RFU, WDR75 / Fold change vs veh, WDR75 / RFU, AHCTF1 / Fold change vs veh, AHCTF1 / RFU, TFRC / Fold change vs veh, TFRC / RFU, ZDHHC17 / Fold change vs veh, ZDHHC17 / RFU, NOM1 / Fold change vs veh, NOM1 / RFU, ARL8B / Fold change vs veh, ARL8B / RFU, ZBTB11 / Fold change vs veh, ZBTB11 / RFU, TAMM41 / Fold change vs veh, TAMM41 / RFU, KIAA1704 /// LOC100996395 / Fold change vs veh, KIAA1704 /// LOC100996395 / RFU, ING1 / Fold change vs veh, ING1 / RFU, TRMT61B / Fold change vs veh, TRMT61B / RFU, FUBP3 / Fold change vs veh, FUBP3 / RFU, TP53 / Fold change vs veh, TP53 / RFU, TNKS2 / Fold change vs veh, TNKS2 / RFU, ZFP14 / Fold change vs veh, ZFP14 / RFU, ACTR2 / Fold change vs veh, ACTR2 / RFU, PPP3R1 / Fold change vs veh, PPP3R1 / RFU, PIK3R1 / Fold change vs veh, PIK3R1 / RFU, HNRNPA1 / Fold change vs veh, HNRNPA1 / RFU, RNF170 / Fold change vs veh, RNF170 / RFU, ZNF28 / Fold change vs veh, ZNF28 / RFU, RNGTT / Fold change vs veh, RNGTT / RFU, OGT / Fold change vs veh, OGT / RFU, BRD1 / Fold change vs veh, BRD1 / RFU, MARS / Fold change vs veh, MARS / RFU, ZNF655 / Fold change vs veh, ZNF655 / RFU, FAHD1 / Fold change vs veh, FAHD1 / RFU, BDP1 / Fold change vs veh, BDP1 / RFU, LRRCC1 / Fold change vs veh, LRRCC1 / RFU, ARID1A / Fold change vs veh, ARID1A / RFU, ZNF146 / Fold change vs veh, ZNF146 / RFU, ZNF330 / Fold change vs veh, ZNF330 / RFU, GPN3 / Fold change vs veh, GPN3 / RFU, C9orf123 / Fold change vs veh, C9orf123 / RFU, N4BP2L2 / Fold change vs veh, N4BP2L2 / RFU, ARFIP1 / Fold change vs veh, ARFIP1 / RFU, FAM179B / Fold change vs veh, FAM179B / RFU, BCL10 / Fold change vs veh, BCL10 / RFU, UHRF1BP1L / Fold change vs veh, UHRF1BP1L / RFU, BET1 / Fold change vs veh, BET1 / RFU, CNOT2 / Fold change vs veh, CNOT2 / RFU, ZNF268 / Fold change vs veh, ZNF268 / Fold change vs veh, ZNF507 / RFU, DGCR2 / Fold change vs veh, DGCR2 / RFU, WDSUB1 / Fold change vs veh, WDSUB1 / Fold change vs veh, HSP90B1 /// MIR3652 / RFU, ADSS / Fold change vs veh, ADSS / RFU, GK / Fold change vs veh, GK / RFU, ZNF148 / Fold change vs veh, ZNF148 / RFU, TAF9 / Fold change vs veh, TAF9 / RFU, SLC1A5 / Fold change vs veh, SLC1A5 / RFU, SLMO2 / Fold change vs veh, SLMO2 / RFU, ABCC4 / Fold change vs veh, ABCC4 / RFU, LOC101060439 /// RAP1B / Fold change vs veh, LOC101060439 /// RAP1B / RFU, RFX7 / Fold change vs veh, RFX7 / RFU, GTPBP10 / Fold change vs veh, GTPBP10 / RFU, CNEP1R1 / Fold change vs veh, CNEP1R1 / RFU, BIVM-ERCC5 /// ERCC5 / Fold change vs veh, BIVM-ERCC5 /// ERCC5 / RFU, ILF3 / Fold change vs veh, ILF3 / RFU 11762660_at / Fold change /veh 11762660_at / RFU VCAN (11757783_s_at) / Fold change /veh VCAN (11757783_s_at) / RFU DDX43 (11728927_at) / Fold change /veh DDX43 (11728927_at) / RFU KRT8 (11758188_x_at) / Fold change /veh KRT8 (11758188_x_at) / RFU NKD1 (11759106_at) / Fold change /veh NKD1 (11759106_at) / RFU SRD5A1 (11742802_a_at) / Fold change /veh SRD5A1 (11742802_a_at) / RFU TPSAB1 /// TPSB2 (11721975_s_at) / Fold change /veh TPSAB1 /// TPSB2 (11721975_s_at) / RFU GSTM3 (11746129_a_at) / Fold change /veh GSTM3 (11746129_a_at) / RFU IL23R (11737362_x_at) / Fold change /veh IL23R (11737362_x_at) / RFU TMEM51 (11727254_a_at) / Fold change /veh TMEM51 (11727254_a_at) / RFU PIWIL2 (11732686_x_at) / Fold change /veh PIWIL2 (11732686_x_at) / RFU ORM1 (11744905_x_at) / Fold change /veh ORM1 (11744905_x_at) / RFU CCDC152 (11743942_at) / Fold change /veh CCDC152 (11743942_at) / RFU ECM1 (11717891_a_at) / Fold change /veh ECM1 (11717891_a_at) / RFU IL23R (11748794_a_at) / Fold change /veh IL23R (11748794_a_at) / RFU TNFAIP8L3 (11732012_x_at) / Fold change /veh TNFAIP8L3 (11732012_x_at) / RFU MBOAT4 (11741988_at) / Fold change /veh MBOAT4 (11741988_at) / RFU 11764193_at / Fold change /veh 11764193_at / RFU TMEM53 (11763286_at) / Fold change /veh TMEM53 (11763286_at) / RFU MAGEB2 (11727129_at) / Fold change /veh MAGEB2 (11727129_at) / RFU TMEM200A (11744735_a_at) / Fold change /veh TMEM200A (11744735_a_at) / RFU CCDC152 (11751479_a_at) / Fold change /veh CCDC152 (11751479_a_at) / RFU FAM211A (11726209_a_at) / Fold change /veh FAM211A (11726209_a_at) / RFU RGS16 (11746705_a_at) / Fold change /veh RGS16 (11746705_a_at) / RFU VCAN (11755009_s_at) / Fold change /veh VCAN (11755009_s_at) / RFU RHOB (11743442_s_at) / Fold change /veh RHOB (11743442_s_at) / RFU RGS16 (11720943_a_at) / Fold change /veh RGS16 (11720943_a_at) / RFU RGS16 (11720944_at) / Fold change /veh RGS16 (11720944_at) / RFU, VPS4B / Fold change vs veh, VPS4B / RFU, CREB1 / Fold change vs veh, CREB1 / RFU, DNAJC13 / Fold change vs veh, DNAJC13 / RFU, GNAQ / Fold change vs veh, GNAQ / RFU, CDK5R1 / Fold change vs veh, CDK5R1 / RFU, ZRANB3 / Fold change vs veh, ZRANB3 / RFU, CUL4A / Fold change vs veh, CUL4A / RFU, CCNY / Fold change vs veh, CCNY / RFU, UFL1 / Fold change vs veh, UFL1 / RFU, COG3 / Fold change vs veh, COG3 / RFU, DIAPH2 / Fold change vs veh, DIAPH2 / RFU, SKA2 / Fold change vs veh, SKA2 / RFU, AFF3 / Fold change vs veh, AFF3 / RFU, LMF1 / Fold change vs veh, LMF1 / RFU, IPO11 / Fold change vs veh, IPO11 / RFU, DFFB / Fold change vs veh, DFFB / RFU, FOXP1 / Fold change vs veh, FOXP1 / RFU, CARD8 / Fold change vs veh, CARD8 / RFU, STRN3 / Fold change vs veh, STRN3 / RFU, ADK / Fold change vs veh, ADK / RFU, RASSF2 / Fold change vs veh, RASSF2 / RFU, WIPF1 / Fold change vs veh, WIPF1 / RFU, LARP1B / Fold change vs veh, LARP1B / RFU, RASA1 / Fold change vs veh, RASA1 / RFU, RB1 / Fold change vs veh, RB1 / RFU, PPFIA1 / Fold change vs veh, PPFIA1 / RFU, MAT2A / Fold change vs veh, MAT2A / RFU, CCT5 / Fold change vs veh, CCT5 / RFU, WDR92 / Fold change vs veh, WDR92 / RFU, CUX1 / Fold change vs veh, CUX1 / RFU, TTC7A / Fold change vs veh, TTC7A / RFU, TMEM135 / Fold change vs veh, TMEM135 / RFU, DEPTOR / Fold change vs veh, DEPTOR / RFU, CPM / Fold change vs veh, CPM / RFU, DNAJB6 / Fold change vs veh, DNAJB6 / RFU, CACNA2D3 / Fold change vs veh, CACNA2D3 / RFU, DTX4 / Fold change vs veh, DTX4 / RFU, TFCP2 / Fold change vs veh, TFCP2 / RFU, GMCL1 /// GMCL1P1 / Fold change vs veh, GMCL1 /// GMCL1P1 / RFU, AEBP2 / Fold change vs veh, AEBP2 / RFU, SNHG1 /// SNORD22 /// SNORD25 /// SNORD26 /// SNORD27 /// SNORD28 /// SNORD29 /// SNORD31 / Fold change vs veh, SNHG1 /// SNORD22 /// SNORD25 /// SNORD26 /// SNORD27 /// SNORD28 /// SNORD29 /// SNORD31 / Fold change (Aza/veh), C12orf56 (ProbeSet 11735607_a_at) / Fold change (ACY-1035/veh), C12orf56 (ProbeSet 11735607_a_at) / Fold change (Aza/veh), FGFR1OP (ProbeSet 11751329_s_at) / Fold change (ACY-1035/veh), FGFR1OP (ProbeSet 11751329_s_at) / Fold change (Aza/veh), VPS36 (ProbeSet 11739960_a_at) / Fold change (ACY-1035/veh), VPS36 (ProbeSet 11739960_a_at) / RFU SYPL1 (11715823_x_at) / Fold change /veh SYPL1 (11715823_x_at) / RFU IGFBP7 (11715501_s_at) / Fold change /veh IGFBP7 (11715501_s_at) / RFU REEP3 (11722064_at) / Fold change /veh REEP3 (11722064_at) / RFU IGLL1 (11728026_x_at) / Fold change /veh IGLL1 (11728026_x_at): dose or concentration left out as unconfirmed
Settings: ProbeSet 11718977_a_at; LIST B

Nc1ncn([C@@H]2O[C@H](CO)[C@@H](O)[C@H]2O)c(=O)n1 [azacitidine]
RFU, CAPN2: 169.72 RFU
